We go through eleven compounds from patent publication US7271192B2, “Substituted 2-pyrrolidine-2-yl-1H-indole compounds” (Gruenenthal GmbH, priority 2001, dated 2007).

What is called inhibition is the change of the read-out against control, counted positive when it falls.

The target in this assay is T1, nNOS (Rattus norvegicus, UniProt P29476).
T1 construct: Rat cerebelli were used as the starting tissue; from tissue; host or cells: rat cerebellum (20,000 g supernatant of homogenate)
In words: NOS assay (HTS NOS assay, radioactive arginine, filter plate). To be noted: enzyme preparation from rat cerebelli. Type of assay: biochemical. The method, then: This assay allows the determination of the percentage inhibition of NO synthase by an active compound by means of measurement of the NOS activity under the action of the active compound. In this procedure, NO synthase is mixed together with radioactively labelled arginine and the active compound under suitable conditions. After discontinuation of the NO formation reaction at a given point in time, the amount of unreacted arginine is determined directly or indirectly. Comparison of this amount with the amount of arginine which remains in a sample from the mixture of NOS and arginine without the addition of active compound and under otherwise identical conditions gives the % inhibition of NO synthase by the active compound tested. This assay can be carried out as follows:
incubation of NO synthase with labelled arginine as the substrate in a reaction vessel,
separation of the labelled arginine from the labelled citrulline possibly formed as the product of the enzymatic reaction at a point in time at which the concentration of citrulline increases,
measurement of the amount of arginine separated off in the particular case.
The separation is carried out via a filter plate membrane.
This NOS assay is particularly suitable for a “high throughput screening” (HTS) on microtitre plates (MTP).
In this HTS NOS assay, radioactive arginine is used as the substrate. The assay volume can be chosen in the range between 25 μl and 250 μl, depending on the nature of the microtitre plate (MTP). Cofactors and coenzymes are added, depending on the enzyme source used. The incubation of the batches in this microtitre plate (assay MTP) according to step (a) is carried out at room temperature and is between 5 and 60 minutes, depending on the enzyme activity (units) used. At the end of the incubation (step (a)), the plate is placed in a cell harvester equipped with an MTP which has a cation exchange membrane as the filter base (filter MTP). All the batches of the assay MTP are transferred into this filter MTP and filtered with suction over a cation exchanger filter plate, a paper filter loaded with phosphate groups. The filter MTP is then washed with buffer or water. The arginine substrate which remains is bonded to the cation exchanger with the aid of this procedure, while the radioactive citrulline formed enzymatically is washed out quantitatively. After drying of the filter MTP and addition of scintillation liquid, the arginine bonded can be counted on a scintillation counter. A non-inhibited NOS reaction is reflected in a low radioactivity. An inhibited enzyme reaction means that the radioactive arginine has not been reacted, i.e. there is a high radioactivity on the filter.
Arginine, L-[2,3,4-^3H]-monohydrochloride; order no. NET-1123, NEN • CaCl2, anhydrous; order no. 2388.1000; Merck KGaA • 1,4-dithiothreitol (DTT), order no. 708984; ROCHE • Na2EDTA-dihydrate; order no. 03680; FLUKA • HEPES, order no. H-3375; SIGMA • NADPH, tetrasodium salt; order no. 1585363; ROCHE • TRIS; ORDER no. 93349; FLUKA
Enzyme preparation buffer: 50 mM Tris-HCl with 1 mM EDTA: The pH of the buffer was adjusted to 7.4 at 4° C.
Incubation buffer (medium): 50 mM HEPES with 1 mM EDTA; 1.25 mM CaCl2 and 1 mM dithiothreitol.
The pH of the buffer was adjusted to 7.4 at 25° C.
Rat cerebelli were used as the starting tissue. The animals were narcotized and sacrificed, the brain tissue, the cerebellum, was removed, 1 ml of enzyme preparation buffer was added (4° C.) per rat cerebellum and the tissue was broken down with a Polytron homogeniser for 1 min at 6,000 rpm. Centrifugation at 4° C. for 15 min at 20,000 g and subsequent decanting of the supernatant and freezing in portions at −80° C. (precipitate discarded) then took place.
Compounds according to the invention were tested for nNOS inhibition in the NOS assay described above.
Turning to `CCN(CC)CCn1c(C2CCCN2C(=O)c2ccco2)c(-c2ccccc2)c2cc(Cl)ccc21` (centres unmarked) [Example 9, {2-[5-Chloro-1-(2-diethylamino-ethyl)-3-phenyl-1H-indol-2-yl]-pyrrolidin-1-yl}-furan-2-yl-methanone], the inhibition at 10 µM is 45%.
As to `CCOC(=O)CCC(=O)N1CCCC1c1c(-c2ccccc2)c2cc(Cl)ccc2n1CCN(CC)CC` (centres unmarked) [Example 12, 4-{2-[5-Chloro-1-(2-diethylamino-ethyl)-3-phenyl-1H-indol-2-yl]-pyrrolidin-1-yl)-4-oxo-butyric acid ethyl ester], the inhibition at 10 µM was determined as 34%.
Consider `CCN(CC)CCn1c(C2CCCN2C(=O)c2ccc(F)cc2)c(-c2ccccc2)c2cc(Cl)ccc21` (centres unmarked) [Example 13, {2-[5-Chloro-1-(2-diethylamino-ethyl)-3-phenyl-1H-indol-2-yl]-pyrrolidin-1-yl}-(4-fluoro-phenyl)-methanone], for which the inhibition at 10 µM worked out at 47%.
To `CCN(CC)CCn1c(C2CCCN2C(=O)C2CCC2)c(-c2ccccc2)c2cc(Cl)ccc21` (centres unmarked) [Example 15, {2-[5-Chloro-1-(2-diethylamino-ethyl)-3-phenyl-1H-indol-2-yl]-pyrrolidin-1-yl}-cyclobutyl-methanone] belongs 38%; to `CCN(CC)CCn1c(C2CCCN2C(=O)c2ccc(Cl)nc2)c(-c2ccccc2)c2cc(Cl)ccc21` (centres unmarked) [Example 17, {2-[5-Chloro-1-(2-diethylamino-ethyl)-3-phenyl-1H-indol-2-yl]-pyrrolidin-1-yl)-(6-chloro-pyridin-3-yl)-methanone], 36%; to `CCCCCC(=O)N1CCCC1c1c(-c2ccccc2)c2cc(Cl)ccc2n1CCN(CC)CC` (centres unmarked) [Example 20, 1-{2-[5-Chloro-1-(2-diethylamino-ethyl)-3-phenyl-1H-indol-2-yl]-pyrrolidin-1-yl}-hexan-1-one], 35%.
For `CCN(CC)CCn1c(C2CCCN2C(=O)c2cc(OC)cc(OC)c2)c(-c2ccccc2)c2cc(Cl)ccc21` (centres unmarked) [Example 26, {2-[5-Chloro-1-(2-diethylamino-ethyl)-3-phenyl-1H-indol-2-yl]-pyrrolidin-1-yl}-(3,5-dimethoxy-phenyl)-methanone], the inhibition at 10 µM came to 51%.
The result for `CCOc1ccc(C(=O)N2CCCC2c2c(-c3ccccc3)c3cc(Cl)ccc3n2CCN(CC)CC)cc1` (centres unmarked) [Example 28, {2-[5-Chloro-1-(2-diethylamino-ethyl)-3-phenyl-1H-indol-2-yl]-pyrrolidin-1-yl}-(4-ethoxy-phenyl)-methanone] reads 41%; that for `COCCOCC(=O)N1CCCC1c1c(-c2ccccc2)c2cc(Cl)ccc2n1C` (centres unmarked) [Example 35, 1-[2-(5-Chloro-1-methyl-3-phenyl-1H-indol-2-yl)-pyrrolidin-1-yl]-2-(2-methoxy-ethoxy)-ethanone], 41%; that for `Cn1c(C2CCCN2C(=O)C2CC2)c(-c2ccccc2)c2cc(Cl)ccc21` (centres unmarked) [Example 48, [2-(5-Chloro-1-methyl-3-phenyl-1H-indol-2-yl)-pyrrolidin-1-yl]-cyclopropyl-methanone], 35%.
The result for `CC#CCn1c(C2CCCN2C(=O)COC)c(-c2ccccc2)c2cc(Cl)ccc21` (centres unmarked) [Example 73, 1-[2-(1-But-2-ynyl-5-chloro-3-phenyl-1H-indol-2-yl)-pyrrolidin-1-yl]-2-methoxy-ethanone] reads 54%.
